Measured values: patent US9949979B2, “Use of inhibitors of the activity or function of PI3K” (NOVARTIS AG, priority 2011, dated 2018)

Tests used:
PI3K alpha = target: T1, PI3K alpha (Homo sapiens, UniProt P42336); assay: Enzymatic PI3K alpha isoform inhibition (lipid kinase activity, Kinase-Glo); format: biochemical; details: Enzymatic Assay
T1 construct: His tag (C); made in house; host or cells: baculovirus; Tn5 (Trichoplusia ni) or TiniPro insect cells
Experimental: (§1) 1 Determination of Enzymatic PI3K Alpha and PI3K Delta Isoform Inhibition
(§2) 1.1 Test of Lipid Kinase Activity
(§3) The kinase reaction is performed in a final volume of 50 μl per well of a half area COSTAR, 96 well plate. The final concentrations of ATP and phosphatidyl inositol in the assay are 5 μM and 6 μg/mL, respectively. The reaction is started by the addition of PI3 kinase, e.g. PI3 kinase δ.
(§4) p110δ. The components of the assay are added per well as follows: • 10 μl test compound in 5% DMSO per well in […]. • Total activity is determined by addition 10 μl of 5% vol/vol DMSO in the first 4 wells of column 1 and the last 4 wells of column 12. • The background is determined by addition of 10 μM control compound to the last 4 wells of column 1 and the first 4 wells of column 12. • 2 mL ‘Assay mix’ are prepared per plate: • 1.912 mL of HEPES assay buffer • 8.33 μl of 3 mM stock of ATP giving a final concentration of 5 μM per well • 1 μl of [^33P]ATP on the activity date giving 0.05 μCi per well • 30 μl of 1 mg/mL PI stock giving a final concentration of 6 μg/mL per well • 5 μl of 1 M stock MgCl2 giving a final concentration of 1 mM per well • 20 μl of the assay mix are added per well. • 2 mL ‘Enzyme mix’ are prepared per plate (x* μl PI3 kinase p110β in 2 mL of kinase buffer). The ‘Enzyme mix’ is kept on ice during addition to the assay plates. The volume of enzyme is dependent on the enzymatic activity of the batch in use. • 20 μl ‘Enzyme mix’ are added/well to start the reaction. • The plate is then incubated at room temperature for 90 minutes. • The reaction is terminated by the addition of 50 μl WGA-SPA bead (wheat germ agglutinin-coated Scintillation Proximity Assay beads) suspension per well. • The assay plate is sealed using TopSeal-S (heat seal for polystyrene microplates, PerkinElmer LAS [Deutschland] GmbH, Rodgau, Germany) and incubated at room temperature for at least 60 minutes. • The assay plate is then centrifuged at 1500 rpm for 2 minutes using the Jouan bench top centrifuge (Jouan Inc., Nantes, France). • The assay plate is counted using a Packard TopCount, each well being counted for 20 seconds.
(§5) The final concentrations of ATP and phosphatidyl inositol (PI) in the assay are 1 μM and 10 μg/mL, respectively. The reaction is started by the addition of ATP.
(§6) The components of the assay are added per well as follows:
(§7) IC50 is determined by a four parameter curve fitting routine that comes along with “excel fit”.
(§8) To start the reaction, 10 μl of 10 nM PI3 kinase and 5 μg/mL 1-alpha-phosphatidylinositol (PI) are added into each well followed by 10 μl of 2 μM ATP. The reaction is performed until approx 50% of the ATP is depleted, and then stopped by the addition of 20 μl of Kinase-Glo solution (Promega Corp., Madison, Wis., USA). The stopped reaction is incubated for 5 minutes and the remaining ATP is then detected via luminescence. IC50 values are then determined.

PI3K delta = PI3K delta (Homo sapiens, UniProt O00329); assay: Enzymatic PI3K delta isoform inhibition (lipid kinase activity, Kinase-Glo); format: biochemical; parameters: for the full-length p110-d subunit are generated and fused by overlapping PCR; His tag (C); made in house; host or cells: baculovirus; Tn5 (Trichoplusia ni) or TiniPro insect cells; details: Enzymatic Assay
Experimental: as §1, §2, §3, §4, §5, §6, §7, §8

TLR9 [1] = assay: TLR9-induced IL-6 in murine splenocytes (CpG1826, ELISA); format: cell-based, C57BL/6 mice; details: Mus musculus, Splenocyte; read-out: TLR9-ligand induced IL-6 in murine splenocytes IC50
Experimental: 2.2 Determination of TLR9-Induced IL-6 in Murine Splenocytes
Spleens were dissected from C57BL/6 mice immediately following euthanasia. Excess fat was trimmed from the spleens prior to mashing the spleen through a […] cell strainer using a plunger from a 5 ml syringe. A single cell suspension was prepared and the volume was adjusted to 15 ml in a 50 ml Falcon tube using cold PBS. Cells were centrifuged at 1500 rpm for 5 minutes at 4° C. degrees prior to removal of supernatant and re-suspension in 5 ml of red blood cell lysis buffer per spleen and incubation for 5 minutes at room temperature. Ice cold PBS (30 ml) was added to the cells prior to centrifugation at 1500 rpm for 5 minutes at 4° C. The supernatant was removed and the cells were washed twice with 40 ml of murine splenocyte culture media (MSCM). […] Cells were re-suspended in 10-20 ml of MSCM and counted using a Countess cell counter. […]
After overnight culture, cells were transferred to 96-well V-bottomed plates and centrifuged at 2000 rpm for 5 minutes at room temperature. Subsequently 150 μl of each culture supernatant was transferred to 96-well flat-bottomed plates and […] were measured using commercially available mouse IL-6 sandwich ELISA kit (R&D systems). […] IL-6 levels were measured using a SpectraMax 190 Plate Reader (450 nm) and analyzed using SoftMax Pro and GraphPad Prism software.

TLR9 [2] = assay: TLR9-induced IFNalpha in human PBMC (CpG2216, AlphaLISA); format: cell-based; details: read-out: TLR9-ligand induced IFNα in human PBMC IC50
Experimental: (§9) 2.4 Determination of TLR9-Induced IFNalpha in Human Peripheral Blood Mononuclear Cells (PBMCs) and Isolated Plasmacytoid Dendritic Cells (pDCs)
Human blood (ca. 75 ml) was collected in 10 S-Monovette tubes containing Heparin (S-Monovette 7.5 mL NH Heparin 16 IU/mL blood; Starstedt). Leucosep™ tubes (30 mL #227290; Greiner Bio-one) were prepared by addition of 15 ml lymphocyte separation medium LSM1077™ per tube (#J15-004; PAA Laboratories) and centrifugation for 30 sec at 1000 g. Some 25 ml blood was transferred to Leucosep™ tubes following dilution with equal parts of PBS (without Ca2+/Mg2+; #14190-094). […] The PBMC were counted using a Countess® Automated cell counter (sample was pre-diluted 1:10 in Media, prior to the addition of equal volume (10 μl) of Trypan Blue). […]
(§10) Compounds were pre-diluted in 100% v/v DMSO (#41640-100 mL; Sigma-Aldrich), followed by transfer in Media (to achieve a final DMSO concentration of 0.25%). […] Plates were briefly centrifuged (200×g for 2 min at 22° C.) and supernatant samples (30 μl) removed for quantification of IFNα levels.
For quantification of IFNalpha the human interferon AlphaLISA Kit (#AL264F) from PerkinElmer was used. […] Data were collected for analysis and quantification of IFNα levels.
Data were analysed using Excel XL fit 4.0 (Microsoft) with XLfit add-in (IDBS; version 4.3.2). […]

TLR9 [3] = assay: TLR9-induced IFNalpha in isolated human pDCs (CpG2216, AlphaLISA); format: cell-based; details: read-out: TLR9-ligand induced IFNα in human pDCs IC50
Experimental: as §9
Human PBMCs were prepared using Buffy Coats as source material from healthy donations (approx. 50 ml obtained from Blutspendezentrum SRK Basel) and processed as indicated above. […]
as §10
For quantification of IFNalpha the human interferon AlphaLISA Kit (#AL264F) from PerkinElmer was used. […] After incubation, the plates were read with an EnVision™ multiplate reader equipped with the ALPHA option using the instrument's own “AlphaScreen standard settings” (e.g. total measurement time: 550 ms, Laser 680 nm excitation time: 180 ms, mirror: D640 as, emission filter: M570w, center wavelength 570 nm, bandwidth 100 nm, transmittance 75%). Data were collected for analysis and quantification of IFNα levels.
Data were analysed using Excel XL fit 4.0 (Microsoft) with XLfit add-in (IDBS; version 4.3.2). Specific IFNα concentrations were determined following extrapolation to standard curves using human IFNα B (2b). […]

T1 sequence (P42336 with tags, fused parts or gaps limits assumed): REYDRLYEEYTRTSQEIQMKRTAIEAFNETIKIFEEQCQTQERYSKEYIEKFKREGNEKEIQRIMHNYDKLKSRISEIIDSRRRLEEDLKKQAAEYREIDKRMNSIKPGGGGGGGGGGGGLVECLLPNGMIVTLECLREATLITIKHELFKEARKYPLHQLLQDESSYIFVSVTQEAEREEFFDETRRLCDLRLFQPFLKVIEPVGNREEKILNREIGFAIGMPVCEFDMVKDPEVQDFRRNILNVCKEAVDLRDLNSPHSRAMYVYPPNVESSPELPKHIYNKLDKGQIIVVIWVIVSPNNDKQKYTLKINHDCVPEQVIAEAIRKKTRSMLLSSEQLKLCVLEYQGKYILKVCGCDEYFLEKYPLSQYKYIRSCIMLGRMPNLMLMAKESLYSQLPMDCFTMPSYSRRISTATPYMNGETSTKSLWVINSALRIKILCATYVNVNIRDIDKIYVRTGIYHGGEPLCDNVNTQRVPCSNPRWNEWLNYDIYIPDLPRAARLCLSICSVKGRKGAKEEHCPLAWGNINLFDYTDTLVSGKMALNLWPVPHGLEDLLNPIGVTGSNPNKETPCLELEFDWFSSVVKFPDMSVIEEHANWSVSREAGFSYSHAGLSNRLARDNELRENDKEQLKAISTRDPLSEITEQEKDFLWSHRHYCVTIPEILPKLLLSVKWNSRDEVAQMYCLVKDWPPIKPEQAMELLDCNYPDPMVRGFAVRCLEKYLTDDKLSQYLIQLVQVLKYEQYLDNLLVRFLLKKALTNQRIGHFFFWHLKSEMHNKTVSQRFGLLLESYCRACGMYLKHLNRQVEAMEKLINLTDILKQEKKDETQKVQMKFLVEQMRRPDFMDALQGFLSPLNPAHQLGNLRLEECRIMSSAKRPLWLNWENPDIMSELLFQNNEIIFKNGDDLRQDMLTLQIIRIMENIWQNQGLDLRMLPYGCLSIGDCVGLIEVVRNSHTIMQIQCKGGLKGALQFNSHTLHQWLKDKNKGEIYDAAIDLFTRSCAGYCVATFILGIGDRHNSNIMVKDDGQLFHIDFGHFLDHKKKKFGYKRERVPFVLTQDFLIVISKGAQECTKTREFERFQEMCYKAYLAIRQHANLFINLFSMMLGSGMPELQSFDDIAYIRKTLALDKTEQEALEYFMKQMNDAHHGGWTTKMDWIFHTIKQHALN
Sequence of PI3K delta (O00329 with tags, fused parts or gaps limits assumed): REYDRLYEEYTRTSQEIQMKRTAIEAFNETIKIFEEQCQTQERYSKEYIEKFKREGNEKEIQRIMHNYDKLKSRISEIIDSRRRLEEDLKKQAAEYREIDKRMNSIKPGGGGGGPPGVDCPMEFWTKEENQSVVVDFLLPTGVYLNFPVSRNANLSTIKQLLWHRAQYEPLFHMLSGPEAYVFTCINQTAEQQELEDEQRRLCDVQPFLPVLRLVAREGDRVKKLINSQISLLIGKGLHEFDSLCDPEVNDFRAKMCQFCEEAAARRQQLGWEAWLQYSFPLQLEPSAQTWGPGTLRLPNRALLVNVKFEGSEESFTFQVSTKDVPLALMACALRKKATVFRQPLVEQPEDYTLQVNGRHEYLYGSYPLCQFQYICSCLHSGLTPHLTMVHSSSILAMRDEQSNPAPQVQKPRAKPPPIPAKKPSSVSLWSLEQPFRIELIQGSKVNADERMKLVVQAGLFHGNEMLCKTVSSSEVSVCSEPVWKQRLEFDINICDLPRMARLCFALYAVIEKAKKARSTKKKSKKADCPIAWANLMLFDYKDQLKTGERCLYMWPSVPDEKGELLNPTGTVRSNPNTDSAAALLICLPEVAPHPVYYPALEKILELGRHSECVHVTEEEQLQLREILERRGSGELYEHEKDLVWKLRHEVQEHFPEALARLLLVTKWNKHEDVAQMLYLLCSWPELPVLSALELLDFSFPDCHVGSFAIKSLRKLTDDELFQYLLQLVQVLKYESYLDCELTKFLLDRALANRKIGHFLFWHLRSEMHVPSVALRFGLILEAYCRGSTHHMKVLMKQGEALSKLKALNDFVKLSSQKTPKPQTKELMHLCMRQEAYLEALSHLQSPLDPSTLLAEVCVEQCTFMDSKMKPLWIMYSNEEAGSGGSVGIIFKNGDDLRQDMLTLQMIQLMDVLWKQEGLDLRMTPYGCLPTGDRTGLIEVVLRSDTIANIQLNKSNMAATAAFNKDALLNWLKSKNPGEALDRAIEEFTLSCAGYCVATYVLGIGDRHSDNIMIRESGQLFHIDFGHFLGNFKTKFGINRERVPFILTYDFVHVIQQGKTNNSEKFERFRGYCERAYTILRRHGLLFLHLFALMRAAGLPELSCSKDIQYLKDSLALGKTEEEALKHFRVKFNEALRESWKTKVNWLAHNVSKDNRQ

| IC50 (PI3K alpha) | IC50 (PI3K delta) | IC50 (TLR9 [1]) | IC50 (TLR9 [2]) | IC50 (TLR9 [3]) | SMILES |
| --- | --- | --- | --- | --- | --- |
| 678 nM | 11.5 nM | – | – | – | Cc1ccc(-c2ccc3ncnc(-c4cccc(C(=O)N5CCN(C)CC5)c4)c3c2)cn1 [19′] |
| 640 nM | 10 nM | – | – | – | CC1(C)CN(C(=O)c2cncc(-c3ncnc4ccc(-c5cnc(N)nc5)cc34)c2)CCO1 [65′] |
| 589 nM | 8.62 nM | – | – | – | CC(=O)N1CCN(C(=O)c2cccc(-c3ncnc4ccc(-c5ccc(C)nc5)cc34)c2)CC1 [6′] |
| – | ≤ 2.67 nM | – | – | – | COc1ccc(-c2ccc3ncnc(-c4cccc(C(=O)N5CCNC(C)(C)C5)c4)c3c2)cn1 [88′] |

The next lines start with the compound.

| SMILES | IC50 (PI3K alpha) | IC50 (PI3K delta) | IC50 (TLR9 [1]) | IC50 (TLR9 [2]) | IC50 (TLR9 [3]) |
| --- | --- | --- | --- | --- | --- |
| COc1ncc(N2CCc3ncnc(O[C@H]4CCN(C(=O)C5CCOCC5)C4)c3C2)cc1C [Example 1, {(S)-3-[6-(6-Methoxy-5-methyl-pyridin-3-yl)-5,6,7,8-tetrahydro-pyrido[4,3-d]pyrimidin-4-yloxy]-pyrrolidin-1-yl}-(tetrahydro-pyran-4-yl)-methanone] | – | – | 327 nM | 211 nM | 50 nM |
| COc1ccc(-c2ccc3ncnc(-c4cccc(C(=O)N5CCN(C(C)=O)CC5)c4)c3c2)cc1C(F)(F)F [9′] | 1400 nM | 10 nM | – | – | – |
| COc1ccc(-c2ccc3ncnc(-c4cccc(C(=O)N5CCN(C)CC5)c4)c3c2)cc1S(=O)(=O)N1CCCC1 [22′, (3-{6-[4-Methoxy-3-(pyrrolidine-1-sulfonyl)-phenyl]-quinazolin-4-yl}-phenyl)-(4-methyl-piperazin-1-yl)-methanone] | 790 nM | 11.5 nM | – | – | – |
